Assay results reported in PMC11887051, “Discovery of ONO-2920632 (VU6011887): A Highly Selective and CNS Penetrant TREK-2 (TWIK-Related K+ Channel 2) Preferring Activator In Vivo Tool Compound” (ACS Chemical Neuroscience, 2025).

Experiments:
TREK-1 [1] = target: T1, TREK-1 (Homo sapiens, UniProt O95069); assay: manual patch clamp (MPC) assay, TREK-1, species not stated; assay type: cell-based
T1 sequence (O95069 1-426): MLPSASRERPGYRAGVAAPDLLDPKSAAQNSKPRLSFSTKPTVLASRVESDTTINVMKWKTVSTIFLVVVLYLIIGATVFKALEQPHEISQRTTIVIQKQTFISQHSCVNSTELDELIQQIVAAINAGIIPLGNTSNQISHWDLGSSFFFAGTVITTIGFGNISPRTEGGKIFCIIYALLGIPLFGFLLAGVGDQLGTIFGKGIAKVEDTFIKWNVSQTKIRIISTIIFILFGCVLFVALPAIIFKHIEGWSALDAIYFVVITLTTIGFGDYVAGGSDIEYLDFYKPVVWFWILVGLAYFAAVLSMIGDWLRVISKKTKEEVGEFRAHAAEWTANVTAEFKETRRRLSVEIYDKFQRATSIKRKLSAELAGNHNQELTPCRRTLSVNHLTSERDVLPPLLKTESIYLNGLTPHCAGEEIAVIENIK

Bradykinin B1 = Bradykinin B1 (Homo sapiens, UniProt P46663); assay: Eurofins Lead Profiling radioligand binding; settings: title: 30 μM
Rolipram = assay: Eurofins Lead Profiling radioligand binding; parameters: species or system Rat; settings: title: 30 μM
Glucocorticoid = Glucocorticoid (Homo sapiens, UniProt P04150); assay: Eurofins Lead Profiling radioligand binding; settings: title: 30 μM
Glucocorticoid, sequence (P04150 whole entry): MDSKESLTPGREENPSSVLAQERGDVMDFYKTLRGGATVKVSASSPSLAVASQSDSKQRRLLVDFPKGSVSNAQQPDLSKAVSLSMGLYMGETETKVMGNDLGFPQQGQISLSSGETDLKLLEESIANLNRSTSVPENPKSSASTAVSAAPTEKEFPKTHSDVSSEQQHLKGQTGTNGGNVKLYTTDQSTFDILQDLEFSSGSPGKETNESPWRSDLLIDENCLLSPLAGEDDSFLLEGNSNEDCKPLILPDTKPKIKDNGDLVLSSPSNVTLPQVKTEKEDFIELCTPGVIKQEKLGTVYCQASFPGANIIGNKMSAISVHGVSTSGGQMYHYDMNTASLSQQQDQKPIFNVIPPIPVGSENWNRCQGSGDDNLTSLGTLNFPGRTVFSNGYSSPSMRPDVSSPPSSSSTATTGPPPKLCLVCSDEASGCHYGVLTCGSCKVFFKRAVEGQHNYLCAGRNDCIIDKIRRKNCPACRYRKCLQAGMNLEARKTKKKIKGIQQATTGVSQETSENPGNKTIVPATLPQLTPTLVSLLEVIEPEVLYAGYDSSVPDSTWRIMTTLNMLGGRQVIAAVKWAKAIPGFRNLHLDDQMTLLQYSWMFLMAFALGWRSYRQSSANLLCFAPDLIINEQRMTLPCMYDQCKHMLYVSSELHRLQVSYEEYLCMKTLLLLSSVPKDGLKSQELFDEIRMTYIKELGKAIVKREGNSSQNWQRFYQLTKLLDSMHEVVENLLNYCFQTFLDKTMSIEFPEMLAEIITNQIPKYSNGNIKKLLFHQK

Histamine H1 = Histamine H1 (Homo sapiens, UniProt P35367); assay: Eurofins Lead Profiling radioligand binding; settings: title: 30 μM
Muscarinic M3 = Muscarinic M3 (Homo sapiens, UniProt P20309); assay: Eurofins Lead Profiling radioligand binding; settings: title: 30 μM
Muscarinic M3, sequence (P20309 whole entry): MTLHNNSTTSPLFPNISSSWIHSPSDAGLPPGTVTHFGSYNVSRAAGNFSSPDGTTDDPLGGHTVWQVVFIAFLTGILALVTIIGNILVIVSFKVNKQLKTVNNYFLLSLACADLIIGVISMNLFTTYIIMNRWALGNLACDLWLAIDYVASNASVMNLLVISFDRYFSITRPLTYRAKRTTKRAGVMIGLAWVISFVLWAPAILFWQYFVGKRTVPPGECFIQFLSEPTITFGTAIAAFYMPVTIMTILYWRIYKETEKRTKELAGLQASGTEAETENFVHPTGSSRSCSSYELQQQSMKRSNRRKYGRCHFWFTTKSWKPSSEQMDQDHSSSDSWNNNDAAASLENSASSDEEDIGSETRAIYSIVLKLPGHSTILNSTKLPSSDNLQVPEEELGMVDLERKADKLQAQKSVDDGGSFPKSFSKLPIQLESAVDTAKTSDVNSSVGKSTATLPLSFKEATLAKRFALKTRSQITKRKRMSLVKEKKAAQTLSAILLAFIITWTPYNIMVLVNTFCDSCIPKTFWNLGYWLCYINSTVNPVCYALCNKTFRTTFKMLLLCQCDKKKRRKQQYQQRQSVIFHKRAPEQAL

Purinergic P2X = assay: Eurofins Lead Profiling radioligand binding; parameters: species or system Rabbit; settings: title: 30 μM
Prostanoid EP4 = Prostanoid EP4 (Homo sapiens, UniProt P35408); assay: Eurofins Lead Profiling radioligand binding; settings: title: 30 μM
Prostanoid EP4, sequence (P35408 whole entry): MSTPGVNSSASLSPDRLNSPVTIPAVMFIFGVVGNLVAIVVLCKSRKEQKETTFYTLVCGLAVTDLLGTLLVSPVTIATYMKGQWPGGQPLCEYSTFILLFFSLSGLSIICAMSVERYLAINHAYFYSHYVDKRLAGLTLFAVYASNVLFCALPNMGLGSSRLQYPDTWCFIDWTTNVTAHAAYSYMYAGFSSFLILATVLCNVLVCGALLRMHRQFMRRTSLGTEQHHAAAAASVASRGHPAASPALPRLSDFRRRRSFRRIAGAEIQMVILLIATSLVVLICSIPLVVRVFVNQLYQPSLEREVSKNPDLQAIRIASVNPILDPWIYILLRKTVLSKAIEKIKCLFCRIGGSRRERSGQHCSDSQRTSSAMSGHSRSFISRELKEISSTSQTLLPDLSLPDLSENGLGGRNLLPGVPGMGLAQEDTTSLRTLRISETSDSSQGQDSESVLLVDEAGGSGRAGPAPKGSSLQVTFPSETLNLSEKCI

[2] = mouse brain homogenate binding; assay type: in vitro ADME; settings: read-out: mouse brain fu
TREK-2 = target: T2, TREK-2 (Homo sapiens, UniProt P57789); assay: human 86Rb flux K2P selectivity panel; assay type: cell-based
T2 sequence (P57789 1-538): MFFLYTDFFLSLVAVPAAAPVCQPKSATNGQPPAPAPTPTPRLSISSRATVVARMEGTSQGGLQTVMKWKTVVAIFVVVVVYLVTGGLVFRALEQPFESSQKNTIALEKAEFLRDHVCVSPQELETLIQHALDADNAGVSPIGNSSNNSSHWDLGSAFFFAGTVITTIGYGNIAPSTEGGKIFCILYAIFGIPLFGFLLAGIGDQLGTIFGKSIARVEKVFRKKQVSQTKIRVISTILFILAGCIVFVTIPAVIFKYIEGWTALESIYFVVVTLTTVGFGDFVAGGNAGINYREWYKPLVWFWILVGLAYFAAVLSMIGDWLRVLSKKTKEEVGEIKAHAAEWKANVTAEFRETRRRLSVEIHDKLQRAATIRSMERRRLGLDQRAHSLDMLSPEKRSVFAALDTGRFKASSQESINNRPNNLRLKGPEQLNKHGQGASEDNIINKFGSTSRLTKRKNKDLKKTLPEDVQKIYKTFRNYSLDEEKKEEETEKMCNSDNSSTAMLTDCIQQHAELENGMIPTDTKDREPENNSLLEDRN

[3] = target: Transporter, Serotonin (SERT) (Homo sapiens, UniProt P31645); assay: Eurofins Lead Profiling radioligand binding; settings: title: 30 μM
Dopamine D2S = Dopamine D2S (Homo sapiens, UniProt P14416); assay: Eurofins Lead Profiling radioligand binding; settings: title: 30 μM
Potassium Channel [SKCA] = assay: Eurofins Lead Profiling radioligand binding; parameters: species or system Rat; settings: title: 30 μM
Phorbol Ester = assay: Eurofins Lead Profiling radioligand binding; parameters: species or system Mouse; settings: title: 30 μM
[4] = test system: Calcium Channel L-Type, Dihydropyridine; assay: Eurofins Lead Profiling radioligand binding; parameters: species or system Rat; settings: title: 30 μM
Glutamate, NMDA, Glycine = Glutamate, NMDA, Glycine (Rattus norvegicus, UniProt P35439); assay: Eurofins Lead Profiling radioligand binding; settings: title: 30 μM
Glutamate, NMDA, Glycine, sequence (P35439 394-800 limits assumed): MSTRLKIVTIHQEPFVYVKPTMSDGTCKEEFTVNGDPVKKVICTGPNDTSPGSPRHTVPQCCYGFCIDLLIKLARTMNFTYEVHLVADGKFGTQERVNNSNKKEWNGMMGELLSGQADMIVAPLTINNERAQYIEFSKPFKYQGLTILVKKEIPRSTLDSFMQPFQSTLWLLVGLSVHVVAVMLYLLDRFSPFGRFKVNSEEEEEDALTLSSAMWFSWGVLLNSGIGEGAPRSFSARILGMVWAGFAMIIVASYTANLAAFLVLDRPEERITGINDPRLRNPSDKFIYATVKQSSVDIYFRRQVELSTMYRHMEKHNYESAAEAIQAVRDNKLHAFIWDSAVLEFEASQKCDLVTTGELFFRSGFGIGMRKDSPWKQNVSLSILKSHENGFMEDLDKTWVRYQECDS

Neuropeptide Y Y1 = Neuropeptide Y Y1 (Homo sapiens, UniProt P25929); assay: Eurofins Lead Profiling radioligand binding; settings: title: 30 μM
Dopamine D4.2 = Dopamine D4.2 (Homo sapiens, UniProt P21917, DEL265-296); assay: Eurofins Lead Profiling radioligand binding; settings: title: 30 μM
Dopamine D1 = Dopamine D1 (Homo sapiens, UniProt P21728); assay: Eurofins Lead Profiling radioligand binding; settings: title: 30 μM
Dopamine D1, sequence (P21728 whole entry): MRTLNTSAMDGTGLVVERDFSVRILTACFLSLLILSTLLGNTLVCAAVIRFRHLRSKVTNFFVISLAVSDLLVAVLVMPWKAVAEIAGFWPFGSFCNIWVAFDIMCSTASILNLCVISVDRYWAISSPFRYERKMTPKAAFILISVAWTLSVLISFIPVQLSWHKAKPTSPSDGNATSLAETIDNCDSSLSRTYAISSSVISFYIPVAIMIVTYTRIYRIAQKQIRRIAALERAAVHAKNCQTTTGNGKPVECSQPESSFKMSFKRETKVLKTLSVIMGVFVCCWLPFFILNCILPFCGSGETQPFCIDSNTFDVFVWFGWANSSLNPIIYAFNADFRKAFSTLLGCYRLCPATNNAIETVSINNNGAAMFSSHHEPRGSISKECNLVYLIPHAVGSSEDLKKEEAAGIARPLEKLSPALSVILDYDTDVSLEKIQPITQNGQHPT

Sigma σ1 = Sigma σ1 (Homo sapiens, UniProt Q99720); assay: Eurofins Lead Profiling radioligand binding; settings: title: 30 μM
Sigma σ1, sequence (Q99720 whole entry): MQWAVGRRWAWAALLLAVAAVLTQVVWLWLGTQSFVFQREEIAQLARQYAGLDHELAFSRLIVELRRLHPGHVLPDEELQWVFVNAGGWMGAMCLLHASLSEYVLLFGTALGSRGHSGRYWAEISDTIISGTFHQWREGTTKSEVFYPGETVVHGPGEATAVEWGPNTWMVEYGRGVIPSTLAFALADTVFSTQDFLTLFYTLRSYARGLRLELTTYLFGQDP

Adrenergic α1A = Adrenergic α1A (Rattus norvegicus, UniProt P43140); assay: Eurofins Lead Profiling radioligand binding; settings: title: 30 μM
Muscarinic M2 = Muscarinic M2 (Homo sapiens, UniProt P08172); assay: Eurofins Lead Profiling radioligand binding; settings: title: 30 μM
Muscarinic M2, sequence (P08172 whole entry): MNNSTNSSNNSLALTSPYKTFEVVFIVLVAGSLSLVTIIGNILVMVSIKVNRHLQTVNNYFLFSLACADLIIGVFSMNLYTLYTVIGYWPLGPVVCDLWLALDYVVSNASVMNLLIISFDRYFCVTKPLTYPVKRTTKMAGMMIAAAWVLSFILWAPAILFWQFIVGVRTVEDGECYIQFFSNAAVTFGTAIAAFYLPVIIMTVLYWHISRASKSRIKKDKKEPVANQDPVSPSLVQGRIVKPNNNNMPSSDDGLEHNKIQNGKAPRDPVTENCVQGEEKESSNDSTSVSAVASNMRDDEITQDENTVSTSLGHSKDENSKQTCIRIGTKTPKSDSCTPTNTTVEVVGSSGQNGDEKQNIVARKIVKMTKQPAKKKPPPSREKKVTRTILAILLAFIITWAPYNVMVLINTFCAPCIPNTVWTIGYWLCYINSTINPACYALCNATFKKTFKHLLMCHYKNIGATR

[5] = test system: Calcium Channel L-Type, Benzothiazepine; assay: Eurofins Lead Profiling radioligand binding; parameters: species or system Rat; settings: title: 30 μM
GABAB1A = GABAB1A (Homo sapiens, UniProt Q9UBS5); assay: Eurofins Lead Profiling radioligand binding; settings: title: 30 μM
GABAB1A, sequence (Q9UBS5 15-961 limits assumed): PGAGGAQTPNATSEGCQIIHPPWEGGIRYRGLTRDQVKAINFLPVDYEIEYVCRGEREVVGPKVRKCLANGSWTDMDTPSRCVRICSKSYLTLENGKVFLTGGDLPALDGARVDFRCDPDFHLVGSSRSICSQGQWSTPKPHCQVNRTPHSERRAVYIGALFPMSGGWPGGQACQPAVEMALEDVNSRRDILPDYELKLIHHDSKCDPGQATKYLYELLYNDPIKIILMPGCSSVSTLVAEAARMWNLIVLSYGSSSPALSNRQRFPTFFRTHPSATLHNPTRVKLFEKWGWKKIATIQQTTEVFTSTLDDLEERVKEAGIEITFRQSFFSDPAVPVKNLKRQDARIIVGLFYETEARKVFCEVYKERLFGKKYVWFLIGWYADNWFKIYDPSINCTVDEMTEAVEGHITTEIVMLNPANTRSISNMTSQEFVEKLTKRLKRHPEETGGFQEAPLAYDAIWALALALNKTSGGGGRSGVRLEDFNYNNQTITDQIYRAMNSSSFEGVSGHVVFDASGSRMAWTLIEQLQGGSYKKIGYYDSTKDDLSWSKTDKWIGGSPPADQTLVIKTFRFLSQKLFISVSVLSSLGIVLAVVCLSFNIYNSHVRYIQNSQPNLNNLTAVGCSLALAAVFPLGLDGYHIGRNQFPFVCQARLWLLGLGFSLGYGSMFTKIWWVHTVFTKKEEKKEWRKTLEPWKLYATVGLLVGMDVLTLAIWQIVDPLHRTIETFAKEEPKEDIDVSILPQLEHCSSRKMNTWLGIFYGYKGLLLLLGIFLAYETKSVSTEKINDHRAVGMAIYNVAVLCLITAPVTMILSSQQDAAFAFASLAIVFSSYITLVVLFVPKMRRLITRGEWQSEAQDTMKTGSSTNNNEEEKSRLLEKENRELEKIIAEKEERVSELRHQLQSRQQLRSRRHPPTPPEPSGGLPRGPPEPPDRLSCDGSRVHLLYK

Tachykinin NK1 = Tachykinin NK1 (Homo sapiens, UniProt P25103); assay: Eurofins Lead Profiling radioligand binding; settings: title: 30 μM
Tachykinin NK1, sequence (P25103 whole entry): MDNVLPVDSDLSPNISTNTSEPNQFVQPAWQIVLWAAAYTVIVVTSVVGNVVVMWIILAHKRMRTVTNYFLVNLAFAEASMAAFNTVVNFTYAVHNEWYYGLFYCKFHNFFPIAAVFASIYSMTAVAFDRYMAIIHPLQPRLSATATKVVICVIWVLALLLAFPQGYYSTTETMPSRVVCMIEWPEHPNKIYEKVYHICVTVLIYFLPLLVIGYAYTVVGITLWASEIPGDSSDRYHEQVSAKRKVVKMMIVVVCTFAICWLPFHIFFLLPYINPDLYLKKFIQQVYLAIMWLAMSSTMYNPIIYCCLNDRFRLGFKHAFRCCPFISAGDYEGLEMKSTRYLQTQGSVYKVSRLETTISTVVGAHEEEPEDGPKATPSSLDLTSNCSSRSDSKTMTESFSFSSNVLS

[6] = target: Transporter, Dopamine (DAT) (Homo sapiens, UniProt Q01959); assay: Eurofins Lead Profiling radioligand binding; settings: title: 30 μM
hERG = target: T3, hERG (Homo sapiens, UniProt Q12809); assay: hERG thallium flux assay; assay type: cell-based; settings: Tl+ flux assay
T3 construct: expressed in transfected cells; host or cells: HEK293

TREK-1 [7] = target: T1, TREK-1; assay: human TREK-1 MPC assay; assay type: cell-based; parameters: host or cells: CHO

CS(=O)(=O)Nc1ccc(C(=O)NCc2ccc(Cl)cc2Cl)cc1 [Compound 13]
EC50 (TREK-1 [1]): 7.4 µM
Emax (TREK-1 [1]): 99%

O=C(NCc1ccc(OC(F)(F)F)cc1F)c1ccc2ncnn2c1 [Compound 19b]
inhibition (Bradykinin B1): -12%
% Inhibition at 10 µM (Rolipram): 13%
inhibition (Glucocorticoid): 7%
inhibition (Histamine H1): 8%
inhibition (Muscarinic M3): 8%
% Inhibition at 10 µM (Purinergic P2X): 22%
inhibition (Prostanoid EP4): 14%
fraction unbound at 6 h, 1 µM [2]: 0.28
TREK-2 preference in 86Rb flux assay (TREK-2; TREK-2 over TREK-1): ~46 fold
activity at TREK-2 in 86Rb flux panel (TREK-2; data is not shown): submicromolar activity
inhibition [3]: 2%
inhibition at 10 µM (Dopamine D2S): 6%
% Inhibition at 10 µM (Potassium Channel [SKCA]): 4%
% Inhibition at 10 µM (Phorbol Ester): 0%
% Inhibition at 10 µM [4]: -2%
inhibition (Glutamate, NMDA, Glycine): -1%
inhibition (Neuropeptide Y Y1): 2%
inhibition (Dopamine D4.2): 15%
inhibition (Dopamine D1): 22%
inhibition (Sigma σ1): 45%
inhibition (Adrenergic α1A): 2%
inhibition (Muscarinic M2): -3%
% Inhibition at 10 µM [5]: 2%
inhibition (GABAB1A): -1%
inhibition (Tachykinin NK1): 2%
inhibition [6]: 14%

O=C(NCc1ccc(OC(F)(F)F)cc1Cl)c1ccc2nncn2c1 [Compound 20]
IC50 (hERG): > 30 µM
EC50 (TREK-1 [7]): 330 nM
Emax (TREK-1 [7]): 172%
